Data set [1] has as its system influenza virus. Type of data set: cell-based. To be noted: 1.23 mg/ml.
The test system of data set [2] is MDCK cells.

Here are results for 1 molecule from patent publication US8623426B2, “Composition for preventing or treating diseases caused by influenza viruses” (Korea Institute of Oriental Medicine, priority 2009, dated 2014).

Read-outs that look alike come from different tables or passages of the source.

On to `CCOC(=O)C1=C[C@@H](OC(CC)CC)[C@H](NC(C)=O)[C@@H](N)C1` [Tamiflu, oseltamivir], for which the antiviral activity result in data set [1] is “no antiviral activity”. In addition, the values for the cytotoxicity result in data set [2] and in data set [2] (1.23 mg/ml) were “comparatively high cytotoxicity” and “showed high cytotoxicity”, respectively. The results for the “Cell viability (%)” value in data set [2] (0.14 mg/ml), in data set [2] (0.41 mg/ml) and in data set [2] (1.23 mg/ml) were 64.02%, 54.94% and 20.83%, respectively.
